Molecules are shown by their SMILES. Values after ≈ are worked out from the molar mass of the structure shown. Read-outs that look alike come from different tables or passages of the source.

Experiment [1] deals with Aspergillus fumigatus ATCC 16424. Briefly: Broth microdilution antifungal susceptibility (MIC/MFC). It is filed as cell-based. Particulars: for MIC / MFC: Aspergillus fumigatus; for MIC: ATCC16424, 48 h. The method, boiled down:
(§1)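 CLSI broth microdilution: Ca/Mg-supplemented Mueller-Hinton for bacteria (~5 × 10^5 CFU/mL, 24 h), MOPS-buffered RPMI 1640 pH 7.0 for fungi (Candida ~2.5 × 10^4, Aspergillus 0.4-5 × 10^4 CFU/mL, 48 h), 35°C, 1% DMSO, 64 to 0.12 μg/mL. MIC read visually; MBC/MFC by plating clear wells.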

The test system of experiment [2] is Aspergillus niger ATCC 16404. Described as above. It is filed as cell-based. The conditions noted are these: for MIC / MFC: Aspergillus niger; for MIC: ATCC16404, 48 h. The method in brief: as §1
Experiment [3] deals with L. donovani promastigotes. Briefly: Anti-leishmanial screening at 100 μM, parasite viability by microscopy. The class given is cell-based, Leishmania donovani. The conditions noted are these: 100 μM, 72 h, phase contrast microscope. The method in brief: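 Promastigotes (MHOM/IN/83/AG83) at 2 × 10^6 cells/mL in M199 with 10% FBS exposed to compound at 100 μM for 72 h at 22°C. Viability assessed microscopically; 0.2% DMSO solvent control, amphotericin B reference.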

Experiment [4] concerns L. donovani promastigotes. Briefly: Dose-dependent anti-promastigote activity, IC50 and IC90. The conditions noted are these: Leishmania donovani, 72 h; for IC50: read-out: L. donovani promastigotes IC50 ± SEM; for IC90: read-out: L. donovani promastigotes IC90 ± SEM. The class given is cell-based, Leishmania donovani.
Experiment [5] has as its system L. donovani promastigotes. Briefly: Promastigote cellular morphology by phase-contrast microscopy. The conditions noted are these: 1 μM, 72 h. It is filed as cell-based, Leishmania donovani. The procedure: Changes in the cellular morphology of Leishmania parasites as a result of compounds 9, 12, 14, and 18 treatment was observed microscopically. Briefly, the promastigotes (2 × 10^6 cells/mL) were incubated in the absence or presence of compounds and AmB for 72 h at a concentration of 1 μM and observed under 40 × objective of a phase-contrast microscope. […] Data were recorded by using NIS-Elements imaging software (Paris et al., [2004]).

[6] abbreviates: read-out: MIC, Af ATCC 16424, broth microdilution, 35°C, 48 h.
The mark [7] stands for this setting: ATCC16424, read-out: MFC, Af ATCC 16424.
[8] abbreviates: broth microdilution, 35°C, 48 h.
[9] abbreviates: read-out: MIC, An ATCC 16404, broth microdilution, 35°C, 48 h.
Where [10] appears, read: ATCC16404, read-out: MFC, An ATCC 16404.
Where [11] appears, read: broth microdilution, 35°C, 48 h, read-out: MIC, Af ATCC 16424.
Where [12] appears, read: ATCC16424, ≥99.9% reduction of original inoculum, read-out: MFC, Af ATCC 16424.
[13] abbreviates: broth microdilution, 35°C, 48 h, read-out: MIC, An ATCC 16404.
Where [14] appears, read: ATCC16404, ≥99.9% reduction of original inoculum, read-out: MFC, An ATCC 16404.
[15] abbreviates: 22°C, mean from three determinations.

Consider `CC/C(=C\c1ccc([N+](=O)[O-])cc1)[N+](=O)[O-]` [Compound 9, 1-nitro-4-((E)-2-nitrobut-1-enyl) benzene], for which the results for the MIC in experiment [1] (setting [6]) and in experiment [2] (setting [9]) were 4 to 8 µg/mL (≈ 18 to 36 µM) and 2 to 4 µg/mL (≈ 9 to 18 µM), respectively. Further, the MFC in experiment [1] (setting [7]) is 8 µg/mL (≈ 36 µM); in experiment [2] (setting [10]), 4 µg/mL (≈ 18 µM). In addition, the “MIC, Af ATCC 16424” value in experiment [1] (setting [8]) amounted to 8 µg/mL (≈ 36 µM). In experiment [2] (setting [8]), the “MIC, An ATCC 16404” value turned out to be 4 µg/mL (≈ 18 µM). In addition, the “Parasite viability after treatment” value in experiment [3] is “All the parasites were found to be dead”. In addition, the IC50 in experiment [4] came out at 23.4 ± 0.71 nM. Besides, in experiment [4], the IC90 stood at 90.2 ± 1.11 nM. Besides, in experiment [5], the “Cellular morphological alterations of promastigotes” value (“Cellular morphological alterations” below) was “altered to an ovoid shape with cell shrinkage, loss of flagella, cytoplasmic condensation”.
With `CC/C(=C\c1cccc([N+](=O)[O-])c1)[N+](=O)[O-]` [Compound 12, 1-nitro-3-((E)-2-nitrobut-1-enyl) benzene], the MIC in experiment [1] (setting [6]) was 1 µg/mL (≈ 4.5 µM); in experiment [2] (setting [9]) it was 0.5 µg/mL (≈ 2.25 µM). For the same compound, the MFC in experiment [1] (setting [7]) came out at 1 µg/mL (≈ 4.5 µM); in experiment [2] (setting [10]) it was 0.5 µg/mL (≈ 2.25 µM). Besides, in experiment [3], the “Parasite viability after treatment” value is recorded as “All the parasites were found to be dead”. Besides, the half-inhibitory concentration (IC50) in experiment [4] was 37.8 ± 3.74 nM. In experiment [4], the IC90 stood at 86.46 ± 0.21 nM. The “Cellular morphological alterations” value in experiment [5] is listed as “altered to an ovoid shape with cell shrinkage, loss of flagella, cytoplasmic condensation”.
Regarding `COc1ccc(/C=C(\C)[N+](=O)[O-])cc1` [Compound 14, 1-methoxy-4-((E)-2-nitroprop-1-enyl) benzene], the MIC in experiment [1] (setting [11]) worked out at 8 µg/mL (≈ 41.4 µM); in experiment [2] (setting [13]), 4 µg/mL (≈ 20.7 µM). Also, the MFC in experiment [1] (setting [12]) was found to be 8 µg/mL (≈ 41.4 µM); in experiment [2] (setting [14]), 4 µg/mL (≈ 20.7 µM). Also, in experiment [3], the “Parasite viability after treatment” value is “All the parasites were found to be dead”. Moreover, in experiment [4] (setting [15]), the IC50 is 40.5 ± 1.47 nM. For the same compound, in experiment [4] (setting [15]), the IC90 amounted to 89 ± 0.52 nM. Moreover, the “Cellular morphological alterations” value in experiment [5] is reported as “altered to an ovoid shape with cell shrinkage, loss of flagella, cytoplasmic condensation”.
`CC/C(=C\c1ccc(O)cc1)[N+](=O)[O-]` [Compound 18, 4-((E)-2-nitrobut-1-enyl) phenol]: the figures for the MIC in experiment [1] (setting [11]) and in experiment [2] (setting [13]) were 4 to 8 µg/mL (≈ 20.7 to 41.4 µM) and 2 to 4 µg/mL (≈ 10.4 to 20.7 µM), respectively. Moreover, the values for the MFC in experiment [1] (setting [12]) and in experiment [2] (setting [14]) were 16 µg/mL (≈ 82.8 µM) and 8 µg/mL (≈ 41.4 µM), respectively. Also, the “MIC, Af ATCC 16424” value in experiment [1] (setting [8]) worked out at 8 µg/mL (≈ 41.4 µM). Further, the “MIC, An ATCC 16404” value in experiment [2] (setting [8]) was 4 µg/mL (≈ 20.7 µM). Also, the “Parasite viability after treatment” value in experiment [3] is listed as “All the parasites were found to be dead”. The IC50 in experiment [4] (setting [15]) worked out at 55.7 ± 2.84 nM. Also, the IC90 in experiment [4] (setting [15]) is 320 ± 3.65 nM. The “Cellular morphological alterations” value in experiment [5] is “altered to an ovoid shape with cell shrinkage, loss of flagella, cytoplasmic condensation”.

(Values after article PMC5007854, “β-Nitrostyrenes as Potential Anti-leishmanial Agents” (Frontiers in Microbiology, 2016).)
